Laboratory results: PMC5408612, “Biophysical studies of cholesterol effects on chromatin” (Journal of Lipid Research, 2017)

Target: T1, long chromatin fibers (chicken histone octamer on 177 bp x 36 array of 601 DNA) (Gallus gallus, UniProt P02263+P0C1H3+P62801+P84229)
T1 construct: gene H3-I
Conditions: labelled compound; 0.5 and 1 uM; on ice; with or without 4.5 mM MgCl2; histone-DNA complex, site on histone versus DNA not resolved

Compound: CC1=CC(C)=[N+]2C1=C(CC[C@@H](C)[C@H]1CC[C@H]3[C@@H]4CC=C5C[C@@H](O)CC[C@]5(C)[C@H]4CC[C@]13C)c1c(C)cc(C)n1[B-]2(F)F [TopFluor cholesterol, 23-(dipyrrometheneborondifluoride)-24-norcholesterol]
- fluorescence co-migration in native agarose gel (EMSA), pelleting assay: cholesterol bound avidly to open or compacted chromatin fibers
